According to patent publication US20260125374A1, “PI3K-ALPHA INHIBITORS AND METHODS OF MAKING AND USING THE SAME” (Relay Therapeutics, Inc., priority 2021, published 2026):
Marks after values point to notes of the source that are not given here.

Assay: Polymorph screening (equilibration, anti-solvent, slow evaporation, slow cooling, temperature cycling, heating-cooling; XRPD and SFC)
Assay type: physicochemical
Experimental: This polymorph screening program of compound I-1 free form was performed with two batches of the pure enantiomer. Both batches are crystalline and is assigned as Form A. The polymorphic behaviors of the enantiomer were investigated by equilibration at 25° C. and 50° C., equilibration under a temperature cycle, crystallization from hot saturated solutions by slow cooling, slow evaporation, precipitation by addition of anti-solvent, and DSC heating-cooling cycle experiments. Relative stability of identified polymorphs was investigated by competitive slurry experiments.
(§1) About 50 mg of I-1 Form A was weighed into a 2 mL glass vial and equilibrated in suitable amount of solvents (pretreated by molecular sieves) at 25° C. for 2 weeks with a stirring plate and with protection from light. Obtained suspensions were filtered with 0.45 μm nylon membrane and the solid parts (wet cake) were investigated by XRPD. When differences were observed, additional investigations were performed (e.g. DSC, TGA, ^1H-NMR, SFC).
as §1, with “into” for “into a”, “vials” for “vial”, “50°” for “25°”, “10 days” for “2 weeks”, “investigation was” for “investigations were”
I-1 Form A was dissolved in a good solvent. […] The solvents used were pretreated by molecular sieve. Precipitates were collected by filtration. The solid part (wet cake) was investigated by XRPD. […] When differences were observed, additional investigations were performed (e.g. DSC, TGA, ^1H-NMR, SFC).
Based on approximate solubility results, I-1 Form A was dissolved in suitable amount of solvents (pretreated by molecular sieves). Obtained solutions were filtered by 0.45 μm nylon filter. […] Solid residues were examined for their polymorphic form. When differences were observed, additional investigations were performed (e.g. DSC, TGA, ^1H-NMR, SFC).
Approximate 50 mg of batch I-1 Form A were dissolved in the minimal amount of selected solvents (without pretreatment by molecular sieves) at 50° C. Obtained solutions were filtered by 0.45 μm nylon filter. […] Precipitates were collected by filtration. The solid parts (wet cake) were investigated by XRPD. When differences were observed, additional investigations were performed (e.g. DSC, TGA, ^1H-NMR, SFC). When no precipitation was obtained or only a few solids were obtained, the solutions were placed at 5° C. for crystallization.
About 50 mg of I-1 Form A was equilibrated in different solvents (pretreated by molecular sieves) under a temperature cycle between 5° C. to 50° C. at a heating/cooling rate of 0.2° C./min for 10 cycles and with protection from light. After 10 cycles, precipitates were collected at 5° C. by filtration. The solid parts (wet cake) were investigated by XRPD. When differences were observed, additional investigations were performed (e.g. DSC, TGA, 1H-NMR, SFC).
Polymorphic behavior of I-1 Form A was investigated by two different heating-cooling cycles of DSC. Cycle 1:30° C. to 280° C. at 10° C./min; 280° C. to −20° C. at 20° C./min; reheat to 300° C. at 10° C./min. Cycle 2:30° C. to 280° C. at 10° C./min; 280° C. to-20° C. at 2° C./min; reheat to 300° C. at 10° C./min.

[1] = anti-solvent Acetone / Heptane(2V), added III-1 Form D seeds, stirred for 1 h
[2] = anti-solvent MeOH / Water(0.1V), III-1 Form A seeds, stirred for 2 days
[3] = anti-solvent THF / MTBE(1.5V), added I-1 Form C seeds, stirred for 2 h

Structure (SMILES): N#Cc1c(-c2cc(NC(=O)c3cc(F)cc(C(F)(F)F)c3)c3c(c2)C(=O)N[C@H]3c2cc(F)ccc2Cl)ccc2ncnn12 [Compound I-1, (R)-N-(3-(2-chloro-5-fluorophenyl)-6-(5-cyano-[1,2,4]triazolo[1,5-a]pyridin-6-yl)-1-oxoisoindolin-4-yl)-3-fluoro-5-(trifluoromethyl)benzamide]
- XRPD [1]: I-1 Form A
- ee %(SFC) [1]: ee %(SFC): 94.9%*
- ee %(SFC) (anti-solvent MeOH / Water(0.1V), III-1 Form A seeds, stirred for 2 h): ee %(SFC): 98.8%*
- XRPD [2]: I-1 Form A
- ee %(SFC) [2]: ee %(SFC): 99.2%*
- XRPD [3]: I-1 Form C
- ee %(SFC) [3]: ee %(SFC): 99.5%*
- XRPD (anti-solvent precipitation at 25° C.: Acetone / Heptane(2V)): I-1 Form A
- XRPD (anti-solvent precipitation at 25° C.: Acetone / MTBE(4V)): I-1 Form A
- XRPD (anti-solvent precipitation at 25° C.: MeOH / MTBE(4V), stirred at 25° C. for 23 days): I-1 Form E
- Comments (outcome) (anti-solvent precipitation at 25° C.: MeOH / Toluene(4V)): Clear solution
- XRPD (anti-solvent precipitation at 25° C.: THF / Heptane(1.5V)): I-1 Form C
- XRPD (anti-solvent precipitation at 25° C.: THF / MTBE(4V)): I-1 Form C
- ee %(SFC) (anti-solvent precipitation: MeOH / MTBE(4V), stirred at 25° C. for 23 days, SFC immediately after preparation): ee % (SFC): 2.7%*
- ee %(SFC) (anti-solvent precipitation: THF / MTBE(4V), SFC immediately after preparation): ee % (SFC): 100.0%*
- racemization in organic solvents (free form polymorph study) (certain organic solvents, including methanol and IPAc): easily racemized
- XRPD (equilibration at 25° C. for 2 weeks in 1,4-Dioxane): I-1 Form A
- XRPD (equilibration at 25° C. for 2 weeks in 2-MeTHF): I-1 Form A
- XRPD (equilibration at 25° C. for 2 weeks in ACN/water(90:10, v/v) a.w. 0.9): I-1 + I-2 mixture
- ee %(SFC) (equilibration at 25° C. for 2 weeks in ACN/water(90:10, v/v), SFC immediately after preparation): ee % (SFC): 89.6%*
- XRPD (equilibration at 25° C. for 2 weeks in Acetone): I-1 + I-2 mixture
- XRPD (equilibration at 25° C. for 2 weeks in Acetone/water(60:40, v/v) a.w. 0.8): I-1 + I-2 mixture
- XRPD (equilibration at 25° C. for 2 weeks in Acetonitrile): I-1 Form A
- XRPD (equilibration at 25° C. for 2 weeks in Benzyl alcohol): I-1 Form A
- XRPD (equilibration at 25° C. for 2 weeks in Dichloromethane): I-1 Form A
- XRPD (equilibration at 25° C. for 2 weeks in Ethanol): I-1 Form A
- XRPD (equilibration at 25° C. for 2 weeks in Ethyl acetate): I-1 Form A
- XRPD (equilibration at 25° C. for 2 weeks in Isopropyl acetate): I-1 Form A
- XRPD (equilibration at 25° C. for 2 weeks in MeOH/water(55:45, v/v) a.w. 0.7): I-1 Form A
- XRPD (equilibration at 25° C. for 2 weeks in Methanol): I-1 + I-2 mixture
- XRPD (equilibration at 25° C. for 2 weeks in Methyl ethyl ketone): I-1 Form A
- XRPD (equilibration at 25° C. for 2 weeks in THF/water(85:15, v/v) a.w. 0.9, target concentration 510 mg/mL): III-1 Form B
- XRPD (equilibration at 25° C. for 2 weeks in Tetrahydrofuran): I-1 Form A
- XRPD (equilibration at 25° C. for 2 weeks in Water): I-1 + I-2 mixture
- XRPD (equilibration at 25° C. for 2 weeks in t-Butyl methyl ether): I-1 Form A
- XRPD (4 days) (equilibration at 25° C. in THF/water(85:15, v/v) a.w. 0.9, added III-1 Form B seeds): I-1 + II-1 mixture
- ee %(SFC) (equilibration at 25° C. in THF/water(85:15, v/v), 4 days, added III-1 Form B seeds): ee %(SFC): 93.8%*
- XRPD (equilibration at 50° C. for 10 days in 1,4-Dioxane): I-1 Form B
- ee %(SFC) (equilibration at 50° C. for 10 days in 1,4-Dioxane, SFC immediately after preparation): ee % (SFC): 100.0%*
- XRPD (equilibration at 50° C. for 10 days in ACN/water(80:20, v/v) a.w. 0.9): III-1 Form A
- ee %(SFC) (equilibration at 50° C. for 10 days in ACN/water(80:20, v/v), SFC immediately after preparation): ee % (SFC): 50.7%*
- XRPD (equilibration at 50° C. for 10 days in Acetone): I-1 Form A
- XRPD (equilibration at 50° C. for 10 days in Acetone/water(60:40, v/v) a.w. 0.8): III-1 Form C
- ee %(SFC) (equilibration at 50° C. for 10 days in Acetone/water(60:40, v/v), SFC immediately after preparation): ee % (SFC): 56.9%*
- XRPD (equilibration at 50° C. for 10 days in Acetonitrile): I-1 Form A
- XRPD (equilibration at 50° C. for 10 days in Anisole): I-1 Form A
- XRPD (equilibration at 50° C. for 10 days in EtOH/water(50:50, v/v) a.w. 0.9): III-1 Form A
- ee %(SFC) (equilibration at 50° C. for 10 days in EtOH/water(50:50, v/v), SFC after preparation for about 12 h): ee % (SFC): 75.0%#;
- ee %(SFC) (equilibration at 50° C. for 10 days in EtOH/water(50:50, v/v), SFC immediately after preparation): ee % (SFC): 76.9%*,
- XRPD (equilibration at 50° C. for 10 days in Ethanol): I-1 Form A
